A short description of series [1]: Pharmacokinetics in humans of resveratrol formulations (plasma profile of total resveratrol). In kind it is in vivo, human. The following applies: voluntary subjects, 180 mg. The procedure: FIG. 1. Plasma profile of total resveratrol (free resveratrol+its metabolites) following the administration to voluntary subjects of a single dose of resveratrol of 180 mg […]® (circles), from pure resveratrol not supported (squares) and a simulation of the combination of resveratrol from […]® and pure resveratrol not supported in the ratio 1:2 (triangles).
The pharmacokinetics in humans of different types of resveratrol formulations. The administration of 180 mg Resveratrol supported on magnesium hydroxide ([…]®) in voluntary subjects leads to a transient increase in total concentration (free resveratrol+resveratrol metabolites) plasmatic resveratrol with Time at the peak concentration of 30 minutes from administration, followed by a decay of about 40% in the period up to 180 minutes from administration.

A further series relates to female fertility. Description: Case reports of fertility enhancement in infertile/sub-fertile women. It is filed as in vivo, human.

Source text for female fertility: A person is […] and is classified as infertile since has tried to conceive for more than 12 months without the initiation of a state of pregnancy. They are not affected by polycystic ovary syndrome according to the Rotterdam criteria.
The patient, a person classified as being sub-fertile because they have been trying to conceive for more than 12 months unsuccessfully. They are not affected by metabolic disorders such as polycystic ovary syndrome according to the Rotterdam criteria.
A person is […] and is classified as a sub-fertile because they have been trying to conceive for more than 12 months without starting a state of pregnancy. It is not affected by metabolic disorders such as polycystic ovary syndrome according to the Rotterdam criteria.

Regarding `Oc1ccc(C=Cc2cc(O)cc(O)c2)cc1` [pure resveratrol, resveratrol], the “Total plasma concentration of resveratrol compared with REVIFAST” value in series [1] is given as “absolute lesser value”. Moreover, the Pregnancy outcome in the series with female fertility (case n1, infertile, 100 mg per day for 3 months) is “without having a pregnancy”; in the series on female fertility (case n1, dosage doubled to 200 mg) it was “has not changed its situation”.

The values are drawn from patent publication US12171728B2, “Mixture of resveratrol supported on metal hydroxide and non-supported pure resveratrol for treating female fertility” (priority 2018, dated 2024).
